The values that follow come from ChEMBL document CHEMBL4699592, “Nature-Inspired (di)Azine-Bridged Bisindole Alkaloids with Potent Antibacterial In Vitro and In Vivo Efficacy against Methicillin-Resistant Staphylococcus aureus” (J Med Chem, 2020).

The test system of assay [1] is Staphylococcus aureus. In words: Antibacterial activity against vancomycin-sensitive Staphylococcus aureus T144 infected in Balb/c mouse peritonitis-sepsis model assessed as increase in survival at 20 mg/kg, ip measured for 48 hrs. It counts as functional, organism-based.
Assay [2] has as its system Staphylococcus aureus. The assay is described as follows: Antibacterial activity against vancomycin-sensitive Staphylococcus aureus T144 infected in Balb/c mouse assessed as reduction in bacterial burden at 20 mg/kg applied topically measured after 12 days by colony counting method. It counts as functional, organism-based. Conditions: time 12.0 day.
Assay [3] has as its system Staphylococcus aureus. In words: Antibacterial activity against vancomycin-sensitive Staphylococcus aureus T144 infected in Balb/c mouse assessed as increase in wound healing at 20 mg/kg applied topically measured daily for 12 days by microscopic analysis. Conditions: time 12.0 day. It counts as functional, organism-based.
Another assay relates to Acinetobacter baumannii. In words: Antibacterial activity against Acinetobacter baumannii ATCC BAA-1605 at 0.78 to 100 uM after 24 hrs by broth microdilution method. It counts as functional, organism-based. Conditions: dose microM 0.78-100, time 24.0 hrs. A general note: In broth dilution the organism is exposed to a series of concentrations in liquid medium.
The subject of assay [4] is Mycobacterium tuberculosis. In words: Antibacterial activity against Mycobacterium tuberculosis H37Rv at 0.78 to 100 uM after 5 days by resazurin dye based fluorescence assay. It counts as functional, organism-based. Conditions: dose microM 0.78-100, time 5.0 day. Background: Resazurin is reduced to fluorescent resorufin, in cell work by metabolically active cells.
For assay [5], the system named is Staphylococcus aureus. The assay is described as follows: Antibacterial activity against methicillin susceptible Staphylococcus aureus ATCC 25923 after 24 hrs by broth microdilution method. It counts as functional.
The test system of assay [6] is Staphylococcus aureus. In words: Antibacterial activity against […] Staphylococcus aureus ATCC 700699 after 24 hrs by broth microdilution method. It counts as functional.

SMILES strings stand for the structures. ≈ marks a conversion by molar mass, not a printed value. Calls of active or inactive are those of the source. The calls are words filed in the database; no cut-off is given here.

In the case of `CN[C@H](CC(C)C)C(=O)N[C@H]1C(=O)N[C@@H](CC(N)=O)C(=O)N[C@H]2C(=O)N[C@H]3C(=O)N[C@H](C(=O)N[C@H](C(=O)O)c4cc(O)cc(O)c4-c4cc3ccc4O)[C@H](O)c3ccc(c(Cl)c3)Oc3cc2cc(c3O[C@@H]2O[C@H](CO)[C@@H](O)[C@H](O)[C@H]2O[C@H]2C[C@](C)(N)[C@H](O)[C@H](C)O2)Oc2ccc(cc2Cl)[C@H]1O`, the result in the assay on Staphylococcus aureus [1], with Staphylococcus aureus [2] and in the assay on Staphylococcus aureus [3] was Active.
The term MIC denotes the least concentration at which growth counts as inhibited. The low end stands for greater potency, the high end for weaker potency. As usually defined, the MIC90 is an inhibitory concentration at the 90% level, which refers to growth in some studies and to a panel of isolates in others. Low readings indicate greater potency, high ones weaker potency. Consider `Brc1cc2[nH]cc(-c3cnc(-c4c[nH]c5cc(Br)c(Br)cc45)cn3)c2cc1Br`, for which the result (in the assay on Acinetobacter baumannii; in assay [4]) was inactive. The same molecule had a minimum inhibitory concentration (MIC) against Staphylococcus aureus [5] of 1.56 µM (≈ 0.976 µg/mL). The MIC90 with Staphylococcus aureus [6] was determined as 1.56 µM (≈ 0.976 µg/mL).
